Assays:
NDM-1 = NDM-1 (Klebsiella pneumoniae, UniProt C7C422); experiment: biochemical; type: biochemical; settings: CCF2-FA fluorescence assay, 2 hours at 25° C.
Procedure, shortened: (§1)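 IC50s come from 4-parameter fits of inhibition versus inhibitor concentration, tested from 20 μM down to 0.00063 μM. Enzyme, CCF2-FA (1.25 μM) and inhibitor react 2 h at 25° C, pH 7, with 10 μM ZnSO4 and 0.005% Tween-20.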

IMP-1 = IMP-1 (Serratia marcescens, UniProt P52699); experiment: biochemical; settings: CCF2-FA fluorescence assay, 2 hours at 25° C.; read-out: IMP1 IC50
Procedure, shortened: as §1

VIM-1 = VIM-1 (Pseudomonas aeruginosa (strain ATCC 15692 / DSM 22644 / CIP 104116 / JCM 14847 / LMG 12228 / 1C / PRS 101 / PAO1), UniProt A0A0F7KYQ8); experiment: biochemical; settings: CCF2-FA fluorescence assay, 2 hours at 25° C.; read-out: VIM1 IC50
Procedure, shortened: as §1

VIM-2 = VIM-2 (Escherichia coli, UniProt Q5U7L7); experiment: biochemical; settings: CCF2-FA fluorescence assay; read-out: VIM2 IC50
[1] = tested on: Escherichia coli expressing NDM-1 (CLB30016); type: cell-based; settings: with imipenem 1 μg/ml; 95% inhibition of bacterial growth
Procedure, shortened: (§2)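 Clinical MBL-producing strains were grown overnight at 35 °C on blood agar, suspended in saline, diluted 1:100 into 1.1× CAMHB and exposed to test compound with imipenem at 1 μg/ml. After 22–24 h at 35 °C, absorbance gave MITC95: lowest compound concentration inhibiting 95% of growth.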

[2] = tested on: Klebsiella pneumoniae expressing VIM-1 (IHMA599644); type: cell-based; settings: with imipenem 1 μg/ml; 95% inhibition of bacterial growth
Procedure, shortened: as §2

[3] = tested on: Serratia marcescens expressing IMP-1 (CL5741); type: cell-based; settings: with imipenem 1 μg/ml; 95% inhibition of bacterial growth
Procedure, shortened: as §2

[4] = tested on: P. aeruginosa MB9798 (efflux+, IMP-1 plasmid); settings: for MB9798 MITC95 P. aeruginosa uM Efflux WT: efflux + (MB9798) strain, imipenem at 2 μg/mL, in the presence of a class A, C, D serine β-lactamase inhibitor closely related to relebactam; for Efflux ratio: fold difference between efflux+ (MB9798) and efflux− (MB9799) strains
Procedure, shortened: (§3)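 Isogenic P. aeruginosa PAO1 strains (efflux+ and multiple-efflux-pump-disrupted) carrying plasmid IMP-1, with inducible AmpC, tested by broth microdilution. Imipenem and/or ceftazidime fixed, usually at CLSI breakpoint, plus fixed class A/C β-lactamase inhibitor; titrated MBL inhibitor concentration restoring susceptibility recorded and compared between strains as efflux fold difference.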

[5] = tested on: P. aeruginosa MB9799 (efflux-, IMP-1 plasmid); type: cell-based, Pseudomonas aeruginosa; settings: efflux − (MB9799) strain; imipenem at 2 μg/mL; in the presence of a class A, C, D serine β-lactamase inhibitor closely related to relebactam
Procedure, shortened: as §3

Sequence of NDM-1 (C7C422 whole entry, looked up, species assumed): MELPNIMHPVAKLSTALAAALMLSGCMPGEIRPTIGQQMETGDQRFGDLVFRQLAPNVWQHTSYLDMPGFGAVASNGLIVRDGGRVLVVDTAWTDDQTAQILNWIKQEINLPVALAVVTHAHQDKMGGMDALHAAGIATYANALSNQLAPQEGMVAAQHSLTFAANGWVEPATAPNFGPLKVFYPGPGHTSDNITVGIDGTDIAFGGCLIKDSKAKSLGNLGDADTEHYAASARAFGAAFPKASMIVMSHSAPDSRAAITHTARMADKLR
Sequence of IMP-1 (P52699 whole entry, looked up, species assumed): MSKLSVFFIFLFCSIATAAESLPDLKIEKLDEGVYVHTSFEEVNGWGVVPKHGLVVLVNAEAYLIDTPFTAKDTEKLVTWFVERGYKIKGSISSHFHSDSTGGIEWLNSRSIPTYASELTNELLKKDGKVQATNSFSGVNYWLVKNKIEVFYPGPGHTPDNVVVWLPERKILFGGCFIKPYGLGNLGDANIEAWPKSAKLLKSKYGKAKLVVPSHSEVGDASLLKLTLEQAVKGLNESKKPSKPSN

Structure (SMILES) | IC50 (NDM-1) [nM] | IC50 (IMP-1) [nM] | IC50 (VIM-1) [nM] | IC50 (VIM-2) [nM] | CLB30016 E. coli MITC95 NDM [1] [µM] | IHMA599644 K. pneumoniae MITC95 VIM [2] [µM] | CL5741 S. marcescens MITC95 IMP [3] [µM] | MB9798 MITC95 P. aeruginosa uM Efflux WT [4] [µM] | Efflux ratio [4] | MB9799 MITC95 P. aeruginosa uM Efflux Mutant [5] [µM]
NC[C@@H](O)CNS(=O)(=O)c1ccc(N2CC[C@@H](CN)C2)c(-c2nn[nH]n2)c1S(N)(=O)=O [Example 121, N1-((R)-3-amino-2-hydroxypropyl)-4-((S)-3-(aminomethyl)pyrrolidin-1-yl)-3-(2H-tetrazol-5-yl)benzene-1,2-disulfonamide] | 58.7 | 66.8 | 4.54 | 30.4 | 1.56 | 0.78 | 1.56 | 6.25 | 2.00 | 3.13
NC[C@@H](O)CNS(=O)(=O)c1ccc(N2CCNC(CO)C2)c(-c2nn[nH]n2)c1S(N)(=O)=O (stereo partly drawn) [Example 122, N1-((R)-3-amino-2-hydroxypropyl)-4-(3-(hydroxymethyl)piperazin-1-yl)-3-(2H-tetrazol-5-yl)benzene-1,2-disulfonamide] | 14.3 | 24.4 | 3.34 | 6.86 | 0.20 | 0.78 | 0.39 | 1.56 | 2.00 | 0.78
NC[C@@H](O)CNS(=O)(=O)c1ccc(N2CCC(CNCCO)CC2)c(-c2nn[nH]n2)c1S(N)(=O)=O [Example 123, (R)-N1-(3-amino-2-hydroxypropyl)-4-(4-(((2-hydroxyethyl)amino)methyl)piperidin-1-yl)-3-(2H-tetrazol-5-yl)benzene-1,2-disulfonamide] | 10.8 | 6.18 | 0.25 | 7.51 | 0.39 | 1.56 | 0.39 | 1.56 | 2.00 | 0.78
NC[C@@H](O)CNS(=O)(=O)c1ccc(N2CC[C@@H](N)C2)c(-c2nn[nH]n2)c1S(N)(=O)=O [Example 125, N1-((R)-3-amino-2-hydroxypropyl)-4-((R)-3-aminopyrrolidin-1-yl)-3-(2H-tetrazol-5-yl)benzene-1,2-disulfonamide] | 88.1 | 61.4 | 10.9 | 53.9 | 0.78 | 1.56 | 3.13 | 6.25 | 2.00 | 3.13
NC[C@@H](O)CNS(=O)(=O)c1ccc(N2CC[C@H](N)C2)c(-c2nn[nH]n2)c1S(N)(=O)=O [Example 126, N1-((R)-3-amino-2-hydroxypropyl)-4-((S)-3-aminopyrrolidin-1-yl)-3-(2H-tetrazol-5-yl)benzene-1,2-disulfonamide] | 200 | 124 | 7.7 | 32.5 | 1.56 | 0.78 | 3.13 | 6.25 | 2.00 | 3.13
NS(=O)(=O)c1c(S(=O)(=O)N[C@@H]2CCNC2)ccc(N2CCNC(CO)CC2)c1-c1nn[nH]n1 (stereo partly drawn) [Example 127, 4-(5-(hydroxymethyl)-1,4-diazepan-1-yl)-N1-((R)-pyrrolidin-3-yl)-3-(2H-tetrazol-5-yl)benzene-1,2-disulfonamide] | 18.9 | 33.7 | 1.25 | 24.6 | 0.39 | 0.78 | 0.78 | 3.13 | 4.00 | 0.78
NCC1CCN(c2ccc(S(=O)(=O)C[C@H](O)CN)c(S(N)(=O)=O)c2-c2nn[nH]n2)CC1 [Example 128, (R)-6-((3-amino-2-hydroxypropyl)sulfonyl)-3-(4-(aminomethyl)piperidin-1-yl)-2-(2H-tetrazol-5-yl)benzenesulfonamide] | 8.71 | 3.65 | 0.94 | 13.3 | 0.39 | 0.78 | 0.78 | 0.78 | 2.00 | 0.39
NC[C@@H](O)CNS(=O)(=O)c1ccc(N2CCN3CCOCC3C2)c(-c2nn[nH]n2)c1S(N)(=O)=O (stereo partly drawn) [Example 129, N1-((R)-3-amino-2-hydroxypropyl)-4-(hexahydropyrazino [2,1-c][1,4]oxazin-8(1H)-yl)-3-(2H-tetrazol-5-yl)benzene-1,2-disulfonamide 2,2,2-trifluoroacetate] | 2.7 | 4.72 | 3.53 | 6.44 | 6.25 | 12.50 | 3.13 | 6.25 | 2.00 | 3.13
NC[C@@H](O)CNS(=O)(=O)c1ccc(N2CCC[C@@H](NCCO)C2)c(-c2nn[nH]n2)c1S(N)(=O)=O [Example 130, N1-((R)-3-amino-2-hydroxypropyl)-4-((R)-3-((2-hydroxyethyl)amino)piperidin-1-yl)-3-(2H-tetrazol-5-yl)benzene-1,2-disulfonamide bis(2,2,2-trifluoroacetate)] | 32 | 128 | 4.21 | 5.47 | 0.78 | 1.56 | 3.13 | 12.50 | 4.00 | 3.13
NCCNS(=O)(=O)C1CCN(c2ccc(S(=O)(=O)NC[C@H](O)CN)c(S(N)(=O)=O)c2-c2nn[nH]n2)CC1 [Example 131, (R)-N1-(3-amino-2-hydroxypropyl)-4-(4-(N-(2-aminoethyl)sulfamoyl)piperidin-1-yl)-3-(2H-tetrazol-5-yl)benzene-1,2-disulfonamide] | 0.79 | 0.87 | 0.11 | 1.05 | 0.39 | 1.56 | 0.78 | 0.78 | 1.00 | 0.78
NCC(O)C1CCN(c2ccc(S(=O)(=O)NC[C@H](O)CN)c(S(N)(=O)=O)c2-c2nn[nH]n2)CC1 (stereo partly drawn) [Example 132, 4-(4-(2-amino-1-hydroxyethyl)piperidin-1-yl)-N1-((R)-3-amino-2-hydroxypropyl)-3-(2H-tetrazol-5-yl)benzene-1,2-disulfonamide] | 1.34 | 2.49 | 0.19 | 4.28 | 0.39 | 1.56 | 0.78 | 0.78 | 1.00 | 0.78
NC[C@@H](O)CNS(=O)(=O)c1ccc(N2CCC3(CCNC3)C2)c(-c2nn[nH]n2)c1S(N)(=O)=O (stereo partly drawn) [Example 133, di-trifluoroacetic acid] | 12.7 | 24 | 2.07 | 57.9 | 0.78 | 0.78 | 1.56 | 3.13 | 2.00 | 1.56
